Data: patent US6730707B2, “Method for reducing intraocular pressure using indole derivatives” (Inspire Pharmaceuticals, Inc., priority 2000, dated 2004)
Read-outs that look alike come from different tables or passages of the source.

Tested on: New Zealand white rabbits
Experiment: Effects on intraocular pressure (IOP) in rabbits, TONOPEN contact tonometer, topical unilateral application
Assay type: in vivo, rabbit
Settings: for maximal reduction of IOP / IC50: topical; for maximal reduction of IOP: n=8; for IC50: Oryctolagus cuniculus; for persistence of the IOP-lowering effect / time at which the maximal effect on IOP was observed: after topical application; for IOP-lowering effect after pretreatment with luzindole: luzindole 100 μg/10 μL applied 30 min before (FIG. 4)
Description: IOP was measured using a TONOPEN contact tonometer supplied by Xomed (Jacksonville, Fla., USA). Ten microliters of the agents were applied topically and unilaterally to the cornea, whereas the contralateral eye received the same volume of saline solution. The corneas were anesthetized to avoid any discomfort associated with the use of the tonometer. Two measurements were made before application of the agents. Melatonin (Sigma, St. […] A single dose was tested in a single animal on a single day.

IC50 (read-out: IC50 for lowering IOP)	IC50 (read-out: IC50 for lowering IOP, equivalent dose)	IC50 (equivalent of the IC50 dose (FIG. 3), read-out: IC50 for lowering IOP, equivalent dose)	IC50 for lowering IOP (dose-response 10 pg/10 μL to 1 mg/10 μL, topical (FIG. 3))	SMILES	maximal reduction of IOP (5-MCA-NAT, maximal at 100 pg/10 μL)	persistence of the IOP-lowering effect	time at which the maximal effect on IOP was observed	maximal IOP response relative to melatonin (comparison of maximal responses)	IOP-lowering effect after pretreatment with luzindole	effect on IOP when applied alone (100 μg/10 μL, over a duration of six hours)	maximal reduction of IOP (melatonin, maximal at 10 μg/10 μL)
423 ± 30 µg/mL	1.8 ± 0.1 nM			COC(=O)Nc1ccc2[nH]cc(CCNC(C)=O)c2c1 [Example 5-MCA-NAT, 5-(methoxycarbonylamino)-N-acetyltryptamine]	43.1±3.65%	10 h	2 h	almost twice	abolished		
				CC(=O)NCCc1c(Cc2ccccc2)[nH]c2ccccc12 [luzindole]						had no effect	
		1.6 ± 0.1 nM	363±23.0 ng/10 μL	COc1ccc2[nH]cc(CCNC(C)=O)c2c1 [melatonin]		3 h	1 h		abolished		24±4.4%
